Inhibition in vivo and IC50 data for 19 compounds are collected here from patent publication US20130252890A1, “6,7-DIHYDRO-5H-BENZO[7]ANNULENE DERIVATIVES, PROCESS FOR PREPARATION THEREOF, PHARMACEUTICAL PREPARATIONS COMPRISING THEM, AND THE USE THEREOF FOR PRODUCTION OF MEDICAMENTS” (BAYER INTELLECTUAL PROPERTY GMBH, priority 2010, published 2013).

The test system of one experiment is uterus. The experiment can be described thus: Anti-uterus growth test in the adult rat. Particulars: sc, 72 h; ovariectomized adult rat, s.c. 3 days with 1.5 μg/kg/day 17β-estradiol; inhibition of uterus growth; value of 44 is a mean of two measurements; read-out: anti-oestrogenic activity in vivo in % at a dose of 0.3 mg/kg (rat). The text has this:
The uterus of oestrogen-substituted rats can be used as a test model for detecting a direct action of substances with anti-oestrogenic properties. The parameter of oestrogenic action is estradiol-induced uterus growth in rats, which is inhibited by simultaneous administration of a substance with anti-oestrogenic action. The experimental animals (n=5-6 animals/group) were ovariectomized before the start of the test, to rule out the influence of endogenous oestrogens. After a phase of 6 to 10 days, the test substances are administered s.c. on 3 consecutive days (d1-d3) in combination with a substitution dose of 1.5 μg/kg/day 17β-estradiol. 17β-estradiol alone serves as positive control, and the excipients serve as negative control. On day 4 (d4) the animals are killed, and the uteri and vaginae are removed and weighed. The organ weights are converted to mg/100 g body weight, then the mean value and the standard deviation are calculated for each dosage. The inhibition of uterus growth induced by 17β-estradiol is shown as percentage inhibition.

In the next experiment the target is T1, oestrogen receptor (ER) (Homo sapiens, UniProt P03372).
T1 construct: These MVLN cells express, along with the functional oestrogen receptor (ER), a reporter construct; endogenous in cells; host or cells: MVLN cells (MCF7 derivative carrying a luciferase reporter construct)
T1 sequence (P03372 1-595): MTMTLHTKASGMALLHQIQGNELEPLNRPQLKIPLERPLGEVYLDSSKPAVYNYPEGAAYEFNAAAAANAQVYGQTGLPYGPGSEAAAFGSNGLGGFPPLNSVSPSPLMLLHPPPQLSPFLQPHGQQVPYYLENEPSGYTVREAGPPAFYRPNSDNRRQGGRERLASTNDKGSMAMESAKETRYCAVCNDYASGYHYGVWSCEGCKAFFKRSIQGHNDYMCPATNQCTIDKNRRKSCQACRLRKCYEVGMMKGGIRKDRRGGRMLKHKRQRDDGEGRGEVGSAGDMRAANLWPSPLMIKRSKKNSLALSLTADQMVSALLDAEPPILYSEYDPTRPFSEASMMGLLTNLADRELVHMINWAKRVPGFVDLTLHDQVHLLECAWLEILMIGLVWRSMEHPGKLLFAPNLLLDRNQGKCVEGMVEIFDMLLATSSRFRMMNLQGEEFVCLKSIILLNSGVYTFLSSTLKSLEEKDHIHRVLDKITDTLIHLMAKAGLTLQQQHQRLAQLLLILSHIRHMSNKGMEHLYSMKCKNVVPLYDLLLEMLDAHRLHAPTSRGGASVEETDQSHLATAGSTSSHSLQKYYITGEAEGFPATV
Put plainly: Anti-oestrogenic action in MVLN cells (inhibition of estradiol-induced luciferase). Format: cell-based. Particulars: inhibition of estradiol-induced luciferase signal, value of Ex. 44 is a mean value, read-out: Antioestrogenic action in vitro: MVLN transactivation antagonism IC50. A digest of the protocol: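 MVLN cells, MCF7 breast cancer derivatives carrying functional ER plus an ER-activated luciferase reporter, were treated with compounds in the presence of estradiol. Anti-oestrogenic activity taken as inhibition of the estradiol-induced luciferase signal.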

As to `CN(CCCCCCC1=C(c2cc(F)cc(F)c2)CCCc2cc(O)ccc21)CCCS(=O)(=O)CCCC(F)(F)F` [Example 7, 8-(3,5-Difluorophenyl)-9-[6-(methyl{3-[(4,4,4-trifluorobutyl)sulphonyl]propyl}amino)hexyl]-6,7-dihydro-5H-benzo[7]annulen-3-ol], in the experiment with uterus, the inhibition in vivo at 0.3 mg/kg stood at 23%. Besides, the half-inhibitory concentration (IC50) (as a rule, the concentration at which inhibition is half-maximal) on oestrogen receptor (ER) turned out to be 24 nM.

As to `CN(CCCCCCC1=C(c2ccc(F)c(F)c2)CCCc2cc(O)ccc21)CCCS(=O)(=O)CCCC(F)(F)F` [Example 23, 8-(3,4-Difluorophenyl)-9-[6-(methyl{3-[(4,4,4-trifluorobutyl)sulphonyl]propyl}amino)hexyl]-6,7-dihydro-5H-benzo[7]annulen-3-ol], in the experiment on uterus, the inhibition in vivo at 0.3 mg/kg was determined as 33%. At oestrogen receptor (ER), the IC50 came out at 22 nM.

With `CC(C)(O)CN(CCCCCCC1=C(c2ccc(F)c(F)c2)CCCc2cc(O)ccc21)CCCS(=O)(=O)CCC(F)(F)F` [Example 27, 8-(3,4-Difluorophenyl)-9-{6-[(2-hydroxy-2-methylpropyl){3-[(3,3,3-trifluoropropyl)sulphonyl]propyl}amino]hexyl}-6,7-dihydro-5H-benzo[7]annulen-3-ol], the inhibition in vivo at 0.3 mg/kg in the experiment with uterus turned out to be 10%. For the same compound, the 50% inhibitory concentration (IC50) on oestrogen receptor (ER) came out at 35 nM.

In the case of `CN(CCCCCCC1=C(c2ccc(F)c(F)c2)CCCc2cc(O)ccc21)CCCCS(=O)(=O)CCCC(F)(F)F` [Example 45, 8-(3,4-Difluorophenyl)-9-[6-(methyl{4-[(4,4,4-trifluorobutyl)sulphonyl]butyl}amino)hexyl]-6,7-dihydro-5H-benzo[7]annulen-3-ol], the inhibition in vivo at 0.3 mg/kg in the experiment on uterus was 73%. For the same compound, the half-maximal inhibitory concentration (IC50) on oestrogen receptor (ER) was 20 nM.

For `CN(CCCCCCC1=C(c2cc(F)cc(F)c2)CCCc2cc(O)ccc21)CCCCS(=O)(=O)CCC(F)(F)F` [Example 46, 8-(3,5-Difluorophenyl)-9-[6-(methyl{4-[(3,3,3-trifluoropropyl)sulphonyl]butyl}amino)hexyl]-6,7-dihydro-5H-benzo[7]annulen-3-ol], the inhibition in vivo at 0.3 mg/kg in the experiment with uterus was 30%. For the same compound, the half-maximal inhibitory concentration (IC50) at oestrogen receptor (ER) stood at 36 nM.

Regarding `CN(CCCCCCC1=C(c2ccc(F)cc2)CCCc2cc(O)ccc21)CCCCS(=O)(=O)CCCC(F)(F)F` [Example 48, 8-(4-Fluorophenyl)-9-[6-(methyl{4-[(4,4,4-trifluorobutyl)sulphonyl]butyl}amino)hexyl]-6,7-dihydro-5H-benzo[7]annulen-3-ol], in the experiment with uterus, the inhibition in vivo at 0.3 mg/kg came to 79%. Further, the 50% inhibitory concentration (IC50) on oestrogen receptor (ER) worked out at 17 nM.

As for `CN(CCCCCCC1=C(c2ccc(F)cc2)CCCc2cc(O)ccc21)CCCS(=O)(=O)CCC(F)(F)C(F)(F)F` [Example 116, 8-(4-fluorophenyl)-9-[6-(methyl{3-[(3,3,4,4,4-pentafluorobutyl)sulphonyl]propyl}amino)hexyl]-6,7-dihydro-5H-benzo[7]annulen-3-ol], the inhibition in vivo at 0.3 mg/kg in the experiment with uterus came out at 15%. Further, the half-inhibitory concentration (IC50) at oestrogen receptor (ER) came to 34 nM.

`CN(CCCCCCC1=C(c2cccc(F)c2)CCCc2cc(O)ccc21)CCCS(=O)(=O)CCCC(F)(F)C(F)(F)F` [Example 125, 8-(3-fluorophenyl)-9-[6-(methyl{3-[(4,4,5,5,5-pentafluoropentyl)sulphonyl]propyl}amino)hexyl]-6,7-dihydro-5H-benzo[7]annulen-3-ol]: the inhibition in vivo at 0.3 mg/kg in the experiment with uterus was determined as 75%. Moreover, on oestrogen receptor (ER), the IC50 came to 13 nM.

`O=S(=O)(CCCCN(CCO)CCCCCCC1=C(c2ccc(F)cc2)CCCc2cc(O)c(F)cc21)CCC(F)(C(F)(F)F)C(F)(F)F` [Example 138, 2-Fluoro-8-(4-fluorophenyl)-9-{6-[(2-hydroxyethyl)(4-{[3,4,4,4-tetrafluoro-3-(trifluoromethyl)butyl]sulphonyl}butyl)amino]hexyl}-6,7-dihydro-5H-benzo[7]annulen-3-ol]: the IC50 on oestrogen receptor (ER) came to 21 nM.

For `[2H]C([2H])([2H])N(CCCCCCC1=C(c2ccc(F)cc2)CCCc2cc(O)ccc21)CCCS(=O)(=O)CCCCC(F)(F)F` [Example 139, 8-(4-Fluorophenyl)-9-{6-[(^2H3)methyl{3-[(5,5,5-trifluoropentyl)sulphonyl]propyl}amino]hexyl}-6,7-dihydro-5H-benzo[7]annulen-3-ol], the concentration for half-maximal inhibition (IC50) at oestrogen receptor (ER) is 7 nM.

With `CN(CCCCCCC1=C(c2ccc(F)cc2)CCCc2cc(O)c(F)cc21)CCCS(=O)(=O)CCCCCC(F)(F)F` [Example 140, 2-Fluoro-8-(4-fluorophenyl)-9-[6-(methyl{3-[(6,6,6-trifluorohexyl)sulphonyl]propyl}amino)hexyl]-6,7-dihydro-5H-benzo[7]annulen-3-ol], the IC50 on oestrogen receptor (ER) came out at 4 nM.

As for `N#CCN(CCCCCCC1=C(c2ccc(F)cc2)CCCc2cc(O)ccc21)CCCS(=O)(=O)CCCCC(F)(F)F` [Example 141, ({6-[8-(4-Fluorophenyl)-3-hydroxy-6,7-dihydro-5H-benzo[7]annulen-9-yl]hexyl}{3-[(5,5,5-trifluoropentyl)sulphonyl]propyl}amino)acetonitrile], on oestrogen receptor (ER), the IC50 came out at 21 nM.

For the compound `CN(CCCCCCC1=C(c2cc(F)ccc2F)CCCc2cc(O)ccc21)CCCCS(=O)(=O)CCCC(F)(F)F` [Example 143, 8-(2,5-Difluorophenyl)-9-[6-(methyl{4-[(4,4,4-trifluorobutyl)sulphonyl]butyl}amino)hexyl]-6,7-dihydro-5H-benzo[7]annulen-3-ol], at oestrogen receptor (ER), the IC50 was 9 nM.

Turning to `CN(CCCCCCC1=C(c2ccc(F)cc2)CCCc2cc(O)c(F)cc21)CCCCS(=O)(=O)C1CCC(F)(F)CC1` [Example 144, 9-{6-[{4-[(4,4-Difluorocyclohexyl)sulphonyl]butyl}(methyl)amino]hexyl}-2-fluoro-8-(4-fluorophenyl)-6,7-dihydro-5H-benzo[7]annulen-3-ol], the IC50 on oestrogen receptor (ER) came out at 10 nM.

Take `CN(CCCCCCC1=C(c2ccc(F)cc2F)CCCc2cc(O)ccc21)CCCS(=O)(=O)CCC(F)(F)C(F)(F)F` [Example 145, 8-(2,4-Difluorophenyl)-9-[6-(methyl{3-[(3,3,4,4,4-pentafluorobutyl)sulphonyl]propyl}amino)hexyl]-6,7-dihydro-5H-benzo[7]annulen-3-ol]: the IC50 at oestrogen receptor (ER) amounted to 22 nM.

As to `CN(CCCCCCC1=C(c2ccc(F)cc2F)CCCc2cc(O)ccc21)CCCCS(=O)(=O)CCC(F)(F)C(F)(F)F` [Example 146, 8-(2,4-Difluorophenyl)-9-[6-(methyl{4-[(3,3,4,4,4-pentafluorobutyl)sulphonyl]-butyl}amino)hexyl]-6,7-dihydro-5H-benzo[7]annulen-3-ol], the IC50 at oestrogen receptor (ER) was 15 nM.

Regarding `CN(CCCCCCC1=C(c2ccc(F)cc2F)CCCc2cc(O)ccc21)CCCCS(=O)(=O)CCCC(F)(F)C(F)(F)F` [Example 147, 8-(2,4-Difluorophenyl)-9-[6-(methyl{4-[(4,4,5,5,5-pentafluoropentyl)sulphonyl]butyl}amino)hexyl]-6,7-dihydro-5H-benzo[7]annulen-3-ol], the half-inhibitory concentration (IC50) on oestrogen receptor (ER) turned out to be 32 nM.

On to `CN(CCCCCCC1=C(c2ccc(F)cc2)CCCc2cc(O)ccc21)CCCS(=O)(=O)CCCCCC(F)(F)F` [Example 148, 8-(4-Fluorophenyl)-9-[6-(methyl{3-[(6,6,6-trifluorohexyl)sulphonyl]propyl}amino)hexyl]-6,7-dihydro-5H-benzo[7]annulen-3-ol], for which the IC50 on oestrogen receptor (ER) amounted to 17 nM.

Take `CN(CCCCCCC1=C(c2ccc(F)cc2)CCCc2c1ccc(O)c2F)CCCS(=O)(=O)CCCC(F)(F)F` [Example 149, 4-Fluoro-8-(4-fluorophenyl)-9-[6-(methyl{3-[(4,4,4-trifluorobutyl)sulphonyl]propyl}amino)hexyl]-6,7-dihydro-5H-benzo[7]annulen-3-ol]: the IC50 at oestrogen receptor (ER) came out at 14 nM.
